Assay results reported in US20110082197A1, “Method for inhibiting formation and/or activation of osteoclasts using flemingia macrophylla extract or lespedeza flavanone A” (CHINA MEDICAL UNIVERSITY, priority 2009, published 2011).

Experiments:
osteoclast precursors = experiment: Differentiation test of osteoclasts (RANKL/M-CSF induced, TRAP staining); assay type: cell-based, Wistar rats; details: for effect of ICI 182,780 on the inhibition of osteoclast formation: 1 nM ICI 182,780 (antagonist of estrogen receptors), result in words
Experimental: Bone marrow was taken out from the femurs and tibiae of Wistar rats, and bone marrow cavities were washed with a α-minimum essential medium (Hyclone, Logan, Utah, USA) comprising a 20 mmol HEPES buffer solution, 10 vol % heat-inactivated fetal bovine serum, 2 mmol glutamine, 100 U/ml penicillin, and 100 µg/ml streptomycin. After 24 hours, inadhesive hematopoietic cells that were washed were collected, and were used as osteoclast precursors.
The aforesaid precursor cells were incubated in 24-wells culture plates with a density of 1×10^6 cells/well, and the culture plates comprised soluble human recombinant RANKL (50 ng/ml, PeproTech EC, London, UK) and M-CSF (20 ng/ml, PeproTech EC). Under the induction of M-CSF and RANKL, the precursor cells may differentiate into osteoclasts.
Then, various concentrations of the Flemingia macrophylla extract or Lespedeza flavanone A were added into the culture plates, and culture medium was replaced once every 3 days. On the ninth day, osteoclasts were stained with a TRAP staining kit, and the formation of osteoclasts was observed. The cells were then fixed with 10 vol % formaldehyde (in a phosphate buffer solution) for three minutes, and were stained with Naphthol AS-Mx phosphate and a tartaric acid solution at 37° C. for 1 hour. TRAP-positive multinucleated osteoclasts with more than three nuclei were regarded as osteoclasts (see Asagiri et al., The molecular understanding of osteoclast differentiation, Bone, 2007, 40: 251-64, which is entirely incorporated hereinto by reference).
To clarify the mechanism of Lespedeza flavanone A, an experiment was carried out with 1 nM ICI 182,780 (an antagonist of estrogen receptors) (see Howell et al., ICI 182,780 (Faslodex): development of a novel, “pure” antiestrogen, Cancer, 2000, 89: 817-825, which is entirely incorporated hereinto by reference), and influence of ICI 182,780 on the formation of osteoclasts was observed, and 10 nM 17β-estradiol was used for comparison.

OVX rats [1] = experiment: Weight ratio of bone ash and calcium content of fifth vertebra; assay type: in vivo, Wistar rats; details: bone ash, per bone volume, oral, alendronate 2.5 mg/kg-body weight per day, 13 weeks
Experimental: (§1) Female Wistar rats (BioLASCO, Taipei, Taiwan) were used in the following experiments. In an experiment group, the rats were anesthetized with 40 mg/kg-body weight of pentobarbital sodium, and ovaries in both sides of the dorsum of the rats were removed to induce osteoporosis, and a decrease in estrogen of the postmenopausal female rats was observed. The rats of which ovaries were removed (i.e., ovariectomized rat) are represented as “OVX rats” hereinafter. In the control group (i.e., a sham group), the skin and muscle on the ovary positions at both sides of the dorsum of the rats were incised and then sutured, while the ovaries were not removed.
(§2) After one week from the surgery, the control group was administrated water orally every day. […] During the administration, the body weight of each rat was measured once a week until the last day of the administration. Distilled water was added into the extract to form a suspension, and the rats were administrated orally with 1 ml/100 g-body weight of the suspension.
The fifth sections of the vertebrae of the rats in Example 3 were dissected in an ethanol bath and dried at 100° C. overnight, and the dry weight of the vertebrae was measured. […] After the cremation, bone ash was collected, and the weight ratio of the bone ash (represented as the percentage of the dry weight of the vertebrae) was measured. […]

OVX rats [2] = experiment: Biochemical values of blood and urine (ALP, calcium, DPD); assay type: in vivo, Wistar rats; details: oral, alendronate 2.5 mg/kg-body weight per day, 13 weeks
Experimental: as §1, §2
The activity of ALP (alkaline phosphatase) and the content of calcium and creatinine in the blood and urine of the rats were measured with a clinical trial kit (Roche Diagnostics, Mannheim, Germany) and a spectrophotometric analyzer (Cobas Mira Plus, Roche, Rotkreuz, Switzerland), and the calcium content in the urine and blood of the rats was also measured with a method using o-cresolphthalein complexone (Randox, UK). ALP is a bio-indicator or molecular marker of an early activation stage of preosteoblasts, and based on ALP activity, the activation situation of preosteoblasts can be observed. The calcium content in the urine is represented as “mg/mmol creatinine in the urine.”
Moreover, the content of deoxypyridinoline (DPD) in the urine was measured with ELISA (enzyme linked immunosorbent assay) (an ELISA kit is purchased from Metra, San Diego, Calif., USA), and is represented as “[…] creatinine in the urine.” The results are shown in Table 5. […]

OVX rats [3] = experiment: Density and content of minerals in tibiae (dual-energy X-ray absorptiometer); assay type: in vivo, Wistar rats; details: oral, alendronate 2.5 mg/kg-body weight per day, 13 weeks
From the text: Female Wistar rats (BioLASCO, Taipei, Taiwan) were used in the following experiments. […] The rats of which ovaries were removed (i.e., ovariectomized rat) are represented as “OVX rats” hereinafter. In the control group (i.e., a sham group), the skin and muscle on the ovary positions at both sides of the dorsum of the rats were incised and then sutured, while the ovaries were not removed.

OVX rats [4] = experiment: Tissue analysis of tibiae (H&E, TRAP staining); assay type: in vivo, Wistar rats; details: oral, alendronate 2.5 mg/kg-body weight per day, 13 weeks
Experimental: as §1, §2
The left tibiae of the rats in Example 3 were taken and fixed with 4 vol % metaformaldehyde (in a phosphate buffer solution, PBS, pH 7.4) for 48 hours, and calcium was removed in a solution (pH 7.4) of 10 wt % EDTA (ethylenediamine tetraacetic acid) at 4° C. for 4 weeks. After calcium was removed, the bones were cut to generate a cross-section, and tissue staining was carried out with hematoxylin and eosin. […] The microscope images were analyzed with a color image analysis system (Image-Pro Plus version 5.1, Media Cybernetics, Maryland, USA), and the volume of trabecular bones and the thickness of […] of metaphysis of the rats were measured. […]
In another aspect, the above cross-section was stained with a TRAP (tartrate-resistant acid phosphatase) kit (Sigma-Aldrich, St. Louis, Mo., USA), and the number of osteoclasts was measured (see Cole et al., Tartrate-resistant acid phosphatase in bone and cartilage following decalcification and cold-embedding in plastic. J Histochem Cyrochem, 1987: 35, 203-6, which is entirely incorporated hereinto by reference).

OVX rats [5] = experiment: Body weight and vagina weight of ovariectomized rats after 13 weeks of oral administration; assay type: in vivo, Wistar rats; details: alendronate 2.5 mg/kg-body weight per day
Experimental: as §1, §2
After the end of the administration in Example 2, the rats were anesthetized with a high dosage of pentobarbital sodium (65 mg/kg-body weight) and were sacrificed. Blood samples of the rats were then collected, and tibiae and vertebrae of the rats were dissected, and vaginas were taken out from the rats and the weight of the vaginas was measured.

**Q.** What does the source list for C[C@]12CC[C@@H]3c4ccc(O)cc4CC[C@H]3[C@@H]1CC[C@@H]2O [17β-estradiol]?
**A.** effect of ICI 182,780 on the inhibition of osteoclast formation (osteoclast precursors): clearly inhibited the inhibition effect; the percentage of osteoclast formation (osteoclast precursors; 10.0 nM with ICI 182,780 (1 nM), day 9): 83.0 ± 13.2 %; the percentage of osteoclast formation (osteoclast precursors; 10.0 nM, day 9, control = 100): 57.7 ± 8.1 %

**Q.** What does the source list for COc1ccc([C@@H]2CC(=O)c3c(O)c(CC=C(C)C)c(O)c(CC=C(C)C)c3O2)c(O)c1 [LDF-A, 5,7,2-trihydroxy-6,8-di-r,r-dimethylallyl-4-methoxyflavanone]?
**A.** effect of ICI 182,780 on the inhibition of osteoclast formation (osteoclast precursors): did not inhibit the inhibition effect; the percentage of osteoclast formation (osteoclast precursors; 0.1 μM with ICI 182,780 (1 nM), day 9): 65.0 ± 11.5%; the percentage of osteoclast formation (osteoclast precursors; 0.1 μM, day 9, control = 100): 70.7 ± 9.5 %; the percentage of osteoclast formation (osteoclast precursors; 1.0 μM with ICI 182,780 (1 nM), day 9): 49.0 ± 6.2%; the percentage of osteoclast formation (osteoclast precursors; 1.0 μM, day 9, control = 100): 60.0 ± 5.2 %; the percentage of osteoclast formation (osteoclast precursors; 10.0 μM with ICI 182,780 (1 nM), day 9): 26.0 ± 8.9%; the percentage of osteoclast formation (osteoclast precursors; 10.0 μM, day 9, control = 100): 27.0 ± 2.6 %

**Q.** With NCCCC(O)(P(=O)(O)O)P(=O)(O)O [alendronate] as the molecule, how does the calcium content (OVX rats [1]) read?
**A.** Its calcium content is 206.1 ± 24.2 mg/mL.

**Q.** What about the “DPD content in urine” value (OVX rats [2]; ELISA) of the same molecule?
**A.** Its value is 281.2 ± 52.3 mg/mmol creatinine.

**Q.** And the ALP (OVX rats [2]; blood serum)?
**A.** The ALP was 163.5 ± 24.0 U/L.

**Q.** And the “calcium content in urine” value (OVX rats [2])?
**A.** The value was 45.2 ± 14.8 mg/mmol creatinine.

**Q.** What about the mineral content (OVX rats [3]) of the same molecule?
**A.** The mineral content was 0.38 ± 0.01 g.

**Q.** And the osteoclast number/bone surface (OVX rats [4]; TRAP staining, tibia)?
**A.** The osteoclast number/bone surface was 2.7 ± 0.4 mm.

**Q.** What about the “thickness of dermal bones” value (OVX rats [4]; tibia metaphysis) of the same molecule?
**A.** Its value is 215.0 ± 10.2 μm.

**Q.** What about the “trabecular bone volume/tissue volume” value (OVX rats [4]; tibia metaphysis) of the same molecule?
**A.** The value was 36.1 ± 1.1 %.

**Q.** What about the “average body weight after 13 weeks from the surgery” value (OVX rats [5]) of the same molecule?
**A.** Its value is 377.8 ± 36.5 g.

**Q.** And the average vagina weight (OVX rats [5])?
**A.** Its average vagina weight is 0.18 ± 0.01 g.
